Measurements: PubChem BioAssay (NCI)
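All cell lines were grown in 96-well plates and treated with compound for 48 hours. TGI marks complete inhibition of growth.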

What was measured:
Assay in all cases: DTP human tumour cell line panel, 48 h
[1] = test system: 786-0 renal
[2] = test system: A498 renal
[3] = test system: A549 NSCLC
[4] = test system: ACHN renal
[5] = test system: BT-549 breast
[6] = test system: CAKI-1 renal
[7] = test system: CCRF-CEM leukemia
[8] = test system: COLO 205 colon
[9] = test system: DU-145 prostate
[10] = test system: EKVX NSCLC
[11] = test system: HCC-2998 colon
[12] = test system: HCT-116 colon
[13] = test system: HCT-15 colon
[14] = test system: HL-60(TB) leukemia
[15] = test system: HOP-62 NSCLC
[16] = test system: HOP-92 NSCLC
[17] = test system: HS 578T breast
[18] = test system: HT29 colon
[19] = test system: IGROV1 ovarian
[20] = test system: K-562 leukemia
[21] = test system: KM12 colon
[22] = test system: LOX IMVI melanoma
[23] = test system: M14 melanoma
[24] = test system: MALME-3M melanoma
[25] = test system: MCF7 breast
[26] = test system: MDA-MB-231 breast
[27] = test system: MDA-MB-435
[28] = test system: MDA-N
[29] = test system: MOLT-4 leukemia
[30] = test system: NCI-H226 lung
[31] = test system: NCI-H23 lung
[32] = test system: NCI-H460 lung
[33] = test system: NCI-H522 lung
[34] = test system: NCI/ADR-RES ovarian
[35] = test system: OVCAR-3 ovarian
[36] = test system: OVCAR-4 ovarian
[37] = test system: OVCAR-5 ovarian
[38] = test system: OVCAR-8 ovarian
[39] = test system: PC-3 prostate
[40] = test system: RPMI-8226 leukemia
[41] = test system: RXF 393 renal
[42] = test system: SF-268 CNS
[43] = test system: SF-295 CNS
[44] = test system: SK-MEL-2 melanoma
[45] = test system: SK-MEL-28 melanoma
[46] = test system: SK-MEL-5 melanoma
[47] = test system: SK-OV-3 ovarian
[48] = test system: SN12C renal
[49] = test system: SNB-19 CNS
[50] = test system: SNB-75 CNS
[51] = test system: SR leukemia
[52] = test system: SW-620 colon
[53] = test system: T-47D breast
[54] = test system: TK-10 renal
[55] = test system: U251 CNS
[56] = test system: UACC-257 melanoma
[57] = test system: UACC-62 melanoma
[58] = test system: UO-31 renal
[59] = test system: SF-539 CNS

CC/C=C/C[C@H](O[Si](C)(C)C(C)(C)C)[C@H]1C[C@H]2O[C@H]([C@@H](O)C#C[Si](C)(C)C)C[C@H]2O1
TGI [1]: 28 µM | TGI [2]: 32.8 µM | TGI [3]: 21.8 µM | TGI [4]: 29 µM | TGI [5]: 33.4 µM | TGI [6]: 24.2 µM | TGI [7]: > 100 µM | TGI [8]: 28.2 µM | TGI [9]: 28.3 µM | TGI [10]: 25.9 µM | TGI [11]: 35.1 µM | TGI [12]: 24.5 µM | TGI [13]: 26.6 µM | TGI [14]: > 100 µM | TGI [15]: 30.4 µM | TGI [16]: 22.4 µM | TGI [17]: 32.4 µM | TGI [18]: 24.4 µM | TGI [19]: 27.5 µM | TGI [20]: > 44.3 µM | TGI [21]: 39.2 µM | TGI [22]: 22.1 µM | TGI [23]: 24.7 µM | TGI [24]: 24.8 µM | TGI [25]: 20.9 µM | TGI [26]: 30.2 µM | TGI [27]: 25.3 µM | TGI [28]: 24.8 µM | TGI [29]: > 48.6 µM | TGI [30]: 20.6 µM | TGI [31]: 24.7 µM | TGI [32]: 36 µM | TGI [33]: 11.9 µM | TGI [34]: 26.3 µM | TGI [35]: 30.2 µM | TGI [36]: 23.1 µM | TGI [37]: 27.3 µM | TGI [38]: 27.9 µM | TGI [39]: 26.2 µM | TGI [40]: 37.6 µM | TGI [41]: 20.4 µM | TGI [42]: 27.4 µM | TGI [43]: 27.5 µM | TGI [44]: 31.3 µM | TGI [45]: 29.7 µM | TGI [46]: 20 µM | TGI [47]: 28.9 µM | TGI [48]: 17.2 µM | TGI [49]: 26.9 µM | TGI [50]: 31 µM | TGI [51]: 7.66 µM | TGI [52]: 37.7 µM | TGI [53]: 23.2 µM | TGI [54]: 30 µM | TGI [55]: 30.2 µM | TGI [56]: 23.2 µM | TGI [57]: 34.1 µM | TGI [58]: 27.6 µM

CCOC(=O)C1C(O)CC2c3ccccc3-c3ccccc3C21 (stereo unspecified)
TGI [1]: 89 µM | TGI [2]: 68.9 µM | TGI [3]: > 100 µM | TGI [4]: > 100 µM | TGI [5]: > 100 µM | TGI [6]: > 100 µM | TGI [7]: > 100 µM | TGI [8]: > 100 µM | TGI [9]: > 100 µM | TGI [10]: > 100 µM | TGI [12]: 41.4 µM | TGI [13]: > 100 µM | TGI [14]: > 100 µM | TGI [15]: 91.2 µM | TGI [16]: 75 µM | TGI [17]: 60.6 µM | TGI [18]: > 100 µM | TGI [19]: > 100 µM | TGI [20]: > 100 µM | TGI [21]: > 100 µM | TGI [22]: > 100 µM | TGI [23]: > 100 µM | TGI [24]: > 100 µM | TGI [25]: > 100 µM | TGI [26]: > 100 µM | TGI [27]: > 100 µM | TGI [28]: > 100 µM | TGI [29]: > 100 µM | TGI [30]: 60.1 µM | TGI [31]: > 100 µM | TGI [32]: > 100 µM | TGI [33]: > 100 µM | TGI [34]: > 100 µM | TGI [35]: > 100 µM | TGI [36]: > 100 µM | TGI [37]: > 100 µM | TGI [38]: 48.1 µM | TGI [39]: > 100 µM | TGI [40]: > 100 µM | TGI [41]: > 100 µM | TGI [42]: > 100 µM | TGI [43]: > 100 µM | TGI [44]: > 100 µM | TGI [45]: > 100 µM | TGI [46]: > 100 µM | TGI [47]: 45.5 µM | TGI [48]: > 100 µM | TGI [49]: > 100 µM | TGI [50]: 67.1 µM | TGI [51]: > 100 µM | TGI [52]: > 100 µM | TGI [53]: > 100 µM | TGI [54]: > 100 µM | TGI [55]: 75.5 µM | TGI [56]: > 100 µM | TGI [57]: > 100 µM | TGI [58]: > 100 µM

CC1=C(O)C(=O)C(C2=C(O)C(=O)C(C)=C(O)C2=O)=C(O)C1=O
TGI [1]: > 100 µM | TGI [2]: > 100 µM | TGI [4]: > 100 µM | TGI [5]: > 100 µM | TGI [6]: > 100 µM | TGI [7]: > 100 µM | TGI [8]: > 100 µM | TGI [9]: > 100 µM | TGI [10]: > 100 µM | TGI [11]: > 100 µM | TGI [12]: > 100 µM | TGI [13]: > 100 µM | TGI [14]: > 100 µM | TGI [15]: > 100 µM | TGI [16]: 92.1 µM | TGI [17]: > 100 µM | TGI [18]: > 100 µM | TGI [19]: > 100 µM | TGI [20]: > 100 µM | TGI [21]: > 100 µM | TGI [22]: > 100 µM | TGI [23]: > 100 µM | TGI [24]: 46.6 µM | TGI [25]: > 100 µM | TGI [26]: > 100 µM | TGI [27]: > 100 µM | TGI [28]: > 100 µM | TGI [29]: > 100 µM | TGI [30]: > 100 µM | TGI [31]: > 100 µM | TGI [32]: > 100 µM | TGI [33]: > 100 µM | TGI [34]: > 100 µM | TGI [35]: > 100 µM | TGI [36]: > 100 µM | TGI [37]: > 100 µM | TGI [38]: > 100 µM | TGI [39]: > 100 µM | TGI [40]: > 100 µM | TGI [41]: > 100 µM | TGI [42]: > 100 µM | TGI [43]: > 100 µM | TGI [59]: > 100 µM | TGI [45]: > 100 µM | TGI [46]: 67.9 µM | TGI [47]: > 100 µM | TGI [48]: > 100 µM | TGI [49]: > 100 µM | TGI [50]: > 100 µM | TGI [51]: > 100 µM | TGI [52]: > 100 µM | TGI [53]: > 100 µM | TGI [55]: > 100 µM | TGI [56]: > 100 µM | TGI [57]: 54 µM | TGI [58]: > 100 µM
